From patent US12528790B2, “Amide derivative having antiviral activity” (Shionogi & Co., Ltd., priority 2020, dated 2026)
Where two headings read alike, the source gives them in different places.

Experiments:
[1] = test system: RSV B (Wash/18537 strain); experiment: In vitro CPE (CytoPathic Effect) inhibition effect evaluation test, RSV type B; type: cell-based
Summary of the method: (§1)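 HEp-2 cells (2.4×10^5 cells/mL, 2% FBS E-MEM) were infected with RSV alongside 3-fold compound dilutions and incubated at 37 °C, 4 days for A2 and 5 days for B Wash/18537. Viable cells quantified by CellTiter-Glo 2.0 luminescence; EC50 by nonlinear regression as 50% CPE inhibition.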

[2] = test system: RSV A2 strain; experiment: In vitro CPE (CytoPathic Effect) inhibition effect evaluation test, RSV type A; type: cell-based
Summary of the method: as §1

[3] = human respiratory syncytial virus, inhibitory effect against RSV type B, CPE inhibition, read-out: EC50
[4] = human respiratory syncytial virus, inhibitory effect against RSV type A (RSV A2 strain), HEp-2 cells, CPE inhibition, read-out: EC50
[5] = inhibitory effect against RSV type B, CPE inhibition, read-out: EC50
[6] = inhibitory effect against RSV type A (RSV A2 strain), HEp-2 cells, CPE inhibition, read-out: EC50

Row | SMILES | EC50 [1, 3] [nM] | EC50 [2, 4] [nM] | further results
1 | O=C(NC1(C(=O)O)C2CC3CC(C2)CC1C3)c1cnc(N2CC3(CCC(F)(F)CC3)c3cc(OC4CCN(CC(F)(F)F)CC4)ccc32)nc1C(F)(F)F (stereo not shown) [Compound I-493] | < 10 | < 10 | –
2 | O=C(NC1(C(=O)O)C2CC3CC(C2)CC1C3)c1cnc(N2CC3(CCCC3)c3cc(O[C@@H]4CCN(CC(F)(F)F)C4)ccc32)nc1C(F)(F)F (stereo partly shown) [Compound I-566] | < 10 | < 10 | –
3 | O=C(NC1(C(=O)O)C2CC3CC(C2)CC1C3)c1cnc(N2CC3(CCOC3)c3cc(OCC(F)(F)F)ccc32)nc1C(F)(F)F (racemic) [Compound I-466] | 10 to 100 | < 10 | –
4 | O=C(NC1(C(=O)O)C2CC3CC(C2)CC1C3)c1cnc(N2CC3(CCCCC3)c3cc(OC4CC5(CCN(CC(F)(F)F)CC5)C4)ccc32)nc1C(F)(F)F (stereo not shown) [Compound I-473] | 100 to 5000 | < 10 | –
5 | CC(F)(F)c1nc(N2CC3(CCCCC3)c3cc(C(=O)N4CCC(C(F)F)CC4)ccc32)ncc1C(=O)NC1(C(=O)O)C2CC3CC(C2)CC1C3 (stereo not shown) [Compound I-610] | < 10 | < 10 | –
6 | CC(F)(F)c1nc(-c2cn(C3CCC(F)(F)CC3)c3cc(O[C@H]4CC[C@H](N5CC(F)(F)C5)CC4)ccc23)ncc1C(=O)N[C@]1(C(=O)O)[C@@H]2CC3C[C@H]1C[C@@](F)(C3)C2 [Compound I-611] | < 10 | < 10 | –
7 | O=C(NC1(C(=O)O)C2CC3CC(C2)CC1C3)c1cnc(N2CC3(CCOCC3)c3cc(OC4CCN(c5ncc(F)cn5)CC4)ccc32)nc1C(F)(F)F (stereo not shown) [Compound I-275] | < 10 | < 10 | –
8 | COCCCCOc1ccc2c(c1)CCN2c1ncc(C(=O)NC2(C(=O)O)CCCCC2)c(C(F)(F)F)n1 [Compound I-2] | 100 to 5000 | 10 to 100 | –
9 | CC(F)(F)c1nc(N2CC3(CCOCC3)c3cc(OC4CCC5(CC4)CN(CC(F)(F)F)C5)ccc32)ncc1C(=O)NC1(C(=O)O)C2CC3CC(C2)CC1C3 (stereo not shown) [Compound I-549] | < 10 | < 10 | –
10 | CC(F)(F)c1nc(N2CC3(CCOCC3)c3cc(O[C@H]4CC[C@H](N5CC(F)(F)C5)CC4)ccc32)ncc1C(=O)NC1(C(=O)O)C2CC3CC(C2)CC1C3 (stereo partly shown) [Compound I-506] | < 10 | < 10 | –
11 | COC[C@@H](C)n1cc(-c2ncc(C(=O)NC3(C(=O)O)C4CC5CC(C4)CC3C5)c(C(C)(F)F)n2)c2ccc(O[C@H]3CC[C@H](N4CC(F)(F)C4)CC3)cc21 (stereo partly shown) [Compound I-569] | < 10 | < 10 | –
12 | CC(F)(F)c1nc(-c2cn(C3CCOCC3)c3cc(O[C@H]4CC[C@H](N5CC(F)(F)C5)CC4)ccc23)ncc1C(=O)NC1(C(=O)O)C2CC3CC(C2)CC1C3 (stereo partly shown) [Compound I-572] | < 10 | < 10 | –
13 | CC(F)(F)c1nc(N2CC3(CCOCC3)c3cc(O[C@H]4CC[C@H](N5CC(F)(F)C5)CC4)ncc32)ncc1C(=O)N[C@]1(C(=O)O)[C@@H]2CC3C[C@H]1C[C@@](F)(C3)C2 [Compound I-601] | < 10 | < 10 | –
14 | CC(F)(F)c1nc(N2CC3(CC3)c3cc(O[C@H]4CC[C@H](N5CC(F)(F)C5)CC4)ccc32)ncc1C(=O)NC1(C(=O)O)C2CC3CC(C2)CC1C3 (stereo partly shown) [Compound I-597] | < 10 | < 10 | –
15 | O=C(NC1(C(=O)O)CCCCC1)c1cnc(N2CC3(CCOCC3)c3cc(OC4CCN(c5ncccn5)CC4)ccc32)nc1C(F)(F)F [Compound I-81] | < 10 | < 10 | –
16 | O=C(NC1(C(=O)O)C2CC3CC(C2)CC1C3)c1cnc(-c2cn(C3CCC(F)(F)CC3)c3cc(OC4CCN(c5ncc(F)cn5)CC4)ccc23)nc1C(F)(F)F (stereo not shown) [Compound I-237] | < 10 | < 10 | –
17 | CC(F)(F)c1nc(N2CC3(CCOCC3)c3cc(O[C@H]4CC[C@H](Nc5ncc(F)cn5)CC4)ccc32)ncc1C(=O)NC1(C(=O)O)C2CC3CC(C2)CC1C3 (stereo partly shown) [Compound I-553] | 10 to 100 | < 10 | –
18 | O=C(NC1(C(=O)O)C2CC3CC(C2)CC1C3)c1cnc(N2CCc3cc(OC4CCN(c5ncccn5)CC4)ccc32)nc1C(F)(F)F (stereo not shown) [Compound I-45] | – | – | EC50 [1, 5]: < 10 nM; EC50 [2, 6]: < 10 nM
19 | COC[C@H](C)n1cc(-c2ncc(C(=O)NC3(C(=O)O)C4CC5CC(C4)CC3C5)c(C(C)(F)F)n2)c2ccc(O[C@H]3CC[C@H](N4CC(F)(F)C4)CC3)cc21 (stereo partly shown) [Compound I-567] | < 10 | < 10 | –
20 | O=C(NC1(C(=O)O)C2CC3CC(C2)CC1C3)c1cnc(N2CC3(CCCCC3)c3cc(OC4CCN(c5cnccn5)CC4)ccc32)nc1C(F)(F)F (stereo not shown) [Compound I-523] | < 10 | < 10 | –
21 | O=C(NC1(C(=O)O)C2CC3CC(C2)CC1C3)c1cnc(-c2cn(C3CCC(F)(F)CC3)c3cc(OC4CCN(c5ncccn5)CC4)ccc23)nc1C(F)(F)F (stereo not shown) [Compound I-239] | < 10 | < 10 | –

Row | SMILES | EC50 [1, 3] [nM] | EC50 [2, 4] [nM] | further results
22 | Cc1nc(-c2cn(C3CCOCC3)c3cc(OC4CCN(c5ncccn5)CC4)ccc23)nc(C(F)(F)F)c1C(=O)NC1(C(=O)O)C2CC3CC(C2)CC1C3 (stereo not shown) [Compound I-245] | < 10 | < 10 | –
23 | O=C(NC1(C(=O)O)C2CC3CC(C2)CC1C3)c1cnc(N2CC3(CCCCC3)c3cc(OC4CCN(c5ncccn5)CC4)ccc32)nc1C(F)(F)F (stereo not shown) [Compound I-214] | < 10 | < 10 | –
24 | CC(F)(F)c1nc(N2CC3(CCOCC3)c3cc(O[C@@H]4CCN(c5ncc(F)cn5)C4)ccc32)ncc1C(=O)NC1(C(=O)O)C2CC3CC(C2)CC1C3 (stereo partly shown) [Compound I-560] | < 10 | < 10 | –
25 | C/C(=N\OC1CCC(F)(F)CC1)c1ccc2c(c1)C1(CCCCC1)CN2c1ncc(C(=O)NC2(C(=O)O)C3CC4CC(C3)CC2C4)c(C(F)(F)F)n1 (single isomer, unassigned) [Compound I-476] | 100 to 5000 | 10 to 100 | –
26 | COc1cnc(N2CCC(Oc3ccc4c(c3)C3(CCCCC3)CN4c3ncc(C(=O)NC4(C(=O)O)C5CC6CC(C5)CC4C6)c(C(F)(F)F)n3)CC2)nc1 (stereo not shown) [Compound I-522] | < 10 | < 10 | –
27 | O=C(NC1(C(=O)O)C2CC3CC(C2)CC1C3)c1cnc(-c2cn(C3CCC(F)(F)CC3)c3cc(OC4CCC(OC5CC5)CC4)ccc23)nc1C(F)(F)F (single isomer, unassigned) [Compound I-480] | – | – | EC50 [1, 5]: 10 to 100 nM; EC50 [2, 6]: < 10 nM
28 | O=C(NC1(C(=O)O)C2CC3CC(C2)CC1C3)c1cnc(-c2cn(C3CCC(F)(F)CC3)c3cc(OC4CC(CN5CC(F)(F)C5)C4)ccc23)nc1C(F)(F)F (single isomer, unassigned) [Compound I-516] | 10 to 100 | < 10 | –
29 | O=C(NC1(C(=O)O)C2CC3CC(C2)CC1C3)c1cnc(N2CC3(CCCCC3)c3cc(O[C@H]4CC[C@H](n5cncn5)CC4)ccc32)nc1C(F)(F)F (stereo partly shown) [Compound I-501] | < 10 | < 10 | –
30 | CC(F)(F)c1nc(N2CC3(CCOCC3)c3cc(OC4CCN(CC5CC(F)(F)C5)CC4)ccc32)ncc1C(=O)NC1(C(=O)O)C2CC3CC(C2)CC1C3 (stereo not shown) [Compound I-533] | < 10 | < 10 | –
31 | CC(F)(F)c1nc(-c2cn(C3CCC(F)(F)CC3)c3cc(O[C@H]4C[C@@H](N5CC(F)(F)C5)C4)ccc23)ncc1C(=O)NC1(C(=O)O)C2CC3CC(C2)CC1C3 (single isomer, unassigned) [Compound I-619] | < 10 | < 10 | –
32 | O=C(NC1(C(=O)O)CCCCC1)c1ccc(N2CCc3cc(OCCC4CCOCC4)ccc32)nc1C(F)(F)F [Compound I-33] | – | – | EC50 ([1]; human respiratory syncytial virus, HEp-2, 120 h, HEp-2 cells, RSV B (Wash/18537 strain), 5 days, CellTiter-Glo, read-out: EC50, inhibitory effect against RSV type B (CPE inhibition)): 110 nM; EC50 ([2]; human respiratory syncytial virus, HEp-2, 96 h, read-out: EC50, inhibitory effect against RSV type A (CPE inhibition)): 7.5 nM
33 | CC(F)(F)c1nc(N2CC3(CCOCC3)c3cc(OC4CCN(CCC(F)(F)F)CC4)ccc32)ncc1C(=O)NC1(C(=O)O)C2CC3CC(C2)CC1C3 (stereo not shown) [Compound I-529] | < 10 | < 10 | –
34 | O=C(NC1(C(=O)O)C2CC3CC(C2)CC1C3)c1ccc(-c2cn(C3CCC(F)(F)CC3)c3cc(O[C@H]4CC[C@@H](N5CC(F)(F)C5)CC4)ccc23)nc1C(F)(F)F (stereo partly shown) [Compound I-514] | 10 to 100 | < 10 | –
35 | CC(F)(F)c1nc(N2CC3(CCCC3)c3cc(OC4CCN(CC(F)(F)F)CC4)ccc32)ncc1C(=O)NC1(C(=O)O)C2CC3CC(C2)CC1C3 (stereo not shown) [Compound I-565] | < 10 | < 10 | –
36 | CC(F)(F)CN1CCC(Oc2ccc3c(-c4ncc(C(=O)NC5(C(=O)O)C6CC7CC(C6)CC5C7)c(C(C)(F)F)n4)cn(C4CCC(F)(F)CC4)c3c2)CC1 (stereo not shown) [Compound I-583] | < 10 | < 10 | –
37 | O=C(NC1(C(=O)O)C2CC3CC(C2)CC1C3)c1cnc(N2CC3(CCOCC3)c3cc(OCCN4CCOCC4)ccc32)nc1C(F)(F)F (stereo not shown) [Compound I-86] | – | – | EC50 [1, 5]: < 10 nM; EC50 [2, 6]: < 10 nM
38 | O=C(NC1(C(=O)O)C2CC3CC(C2)CC1C3)c1ccc(-c2cn(C3CCC(F)CC3)c3cc(O[C@H]4CC[C@H](N5CC(F)(F)C5)CC4)ccc23)nc1C(F)(F)F (single isomer, unassigned) [Compound I-579] | < 10 | < 10 | –
39 | CC(F)(F)c1nc(N2CC3(CCCCC3)c3cc(-n4ncc5c4CCN(CC(F)(F)F)C5)ccc32)ncc1C(=O)NC1(C(=O)O)C2CC3CC(C2)CC1C3 (stereo not shown) [Compound I-607] | < 10 | < 10 | –
40 | CC(F)(F)c1nc(N2CC3(CCOCC3)c3cc(OC4CCN(CC#N)CC4)ccc32)ncc1C(=O)NC1(C(=O)O)C2CC3CC(C2)CC1C3 (stereo not shown) [Compound I-528] | 100 to 5000 | < 10 | –
41 | CC(F)(F)CN1CCC(Oc2ccc3c(-c4ncc(C(=O)NC5(C(=O)O)C6CC7CC(C6)CC5C7)c(C(C)(F)F)n4)cn(C4CCOCC4)c3c2)CC1 (stereo not shown) [Compound I-612] | < 10 | < 10 | –
